Measured values from patent publication US20230081426A1, “COMPOUNDS AND METHODS FOR KRAS MODULATION AND INDICATIONS THEREFOR” (Plexxikon Inc., priority 2020, published 2023).

How the values were obtained:
[1] = biological target: T1, G12D-mutant human KRAS (amino acid residues 1-188) (Homo sapiens, UniProt P01116, G12D); assay: KRAS Binding Disruption Assay (AlphaScreen; biotinylated KRpep-2d analogue or RAF1-RBD), G12D; details: KRAS G12D; geometric mean; read-out: KRAS GMean IC50 (uM) MUTATION: G12D
T1 construct: G12D or G12C-mutant human KRAS (amino acid residues 1-188) with FLAG tag; made in house; host or cells: E. coli
Summary of the method: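 Mutant KRAS (5-20 nM) incubated 1 h at 25° C with test compound and 5-20 nM biotinylated KRpep-2d analogue or RAF1-RBD in 20 mM HEPES pH 7.5, 100 mM NaCl, 5 mM MgCl2, 0.01% Tween-20, 0.01% BSA.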

[2] = biological target: T2, G12V-mutant human KRAS (amino acid residues 1-188) (Homo sapiens, UniProt P01116, G12V); assay: KRAS Binding Competition Assay (AlphaScreen; biotinylated KRpep-2d analogue), G12V; details: geometric mean, read-out: KRAS GMean IC50 (uM) MUTATION: G12V
T2 construct: G12V-mutant human KRAS (amino acid residues 1-188) with FLAG tag was purified from E. coli; made in house; host or cells: E. coli

SMILES | IC50 [1] | IC50 [2]
CC(C)(C)c1ccc2[nH]cc(-c3ccc4c(N5C[C@H]6CC[C@@H](C5)N6)nc(OCC56CCCN5CCC6)nc4c3F)c2c1 [P-0611, 4-((1R,5S)-3,8-diazabicyclo[3.2.1]octan-3-yl)-7-(5-(tert-butyl)-1H-indol-3-yl)-8-fluoro-2-((tetrahydro-1H-pyrrolizin-7a(5H)-yl)methoxy)quinazoline] | 10 to 100 µM | 100 to 1000 µM
Nc1cc(-c2c(F)cc3c(N4C[C@H]5CC[C@@H](C4)N5)nc(OCC45CCCN4CCC5)nc3c2F)ccc1Cl [P-0609, 5-(4-((1R,5S)-3,8-diazabicyclo[3.2.1]octan-3-yl)-6,8-difluoro-2-((tetrahydro-1H-pyrrolizin-7a(5H)-yl)methoxy)quinazolin-7-yl)-2-chloroaniline] | 10 to 100 µM | 100 to 1000 µM
Cc1cccc2c(Nc3c(F)cc4c(N5C[C@H]6CC[C@@H](C5)N6)nc(OC[C@@H]5CCCN5C)nc4c3F)n[nH]c12 [P-0457, 4-((1R,5S)-3,8-diazabicyclo[3.2.1]octan-3-yl)-6,8-difluoro-N-(7-methyl-1H-indazol-3-yl)-2-(((S)-1-methylpyrrolidin-2-yl)methoxy)quinazolin-7-amine] | 10 to 100 µM | 10 to 100 µM
Fc1cc2c(N3C[C@H]4CC[C@@H](C3)N4)nc(OCC34CCCN3CCC4)nc2c(F)c1-c1c[nH]c2ccc(Cl)cc12 [P-0373, 4-((1R,5S)-3,8-diazabicyclo[3.2.1]octan-3-yl)-7-(5-chloro-1H-indol-3-yl)-6,8-difluoro-2-((tetrahydro-1H-pyrrolizin-7a(5H)-yl)methoxy)quinazoline] | 0.0001 to 10 µM | 10 to 100 µM
CN(C)c1cccc(Oc2nc(N3C[C@H]4CC[C@@H](C3)N4)c3cc(Cl)c(-c4c(O)cccc4F)c(F)c3n2)c1 [P-0390, 2-(4-((1R,5S)-3,8-diazabicyclo[3.2.1]octan-3-yl)-6-chloro-2-(3-(dimethylamino)phenoxy)-8-fluoroquinazolin-7-yl)-3-fluorophenol] | 0.0001 to 10 µM | 0.0001 to 10 µM
CN1CCC[C@H]1COc1nc(N2[C@@H]3CC[C@H]2CN(C(=O)Nc2ccn[nH]2)C3)c2ccc(-c3cc(O)cc4ccccc34)cc2n1 [P-0271, (1R,5S)-8-(7-(3-hydroxynaphthalen-1-yl)-2-(((S)-1-methylpyrrolidin-2-yl)methoxy)quinazolin-4-yl)-N-(1H-pyrazol-5-yl)-3,8-diazabicyclo[3.2.1]octane-3-carboxamide] | 10 to 100 µM | 0.0001 to 10 µM
O=C(Cc1c[nH]c(=O)[nH]c1=O)N1[C@@H]2CC[C@H]1CN(c1nc(OCC34CCCN3CCC4)nc3c(F)c(-c4cc(O)cc5ccccc45)ccc13)C2 [P-0374, 5-(2-((1R,5S)-3-(8-fluoro-7-(3-hydroxynaphthalen-1-yl)-2-((tetrahydro-1H-pyrrolizin-7a(5H)-yl)methoxy)quinazolin-4-yl)-3,8-diazabicyclo[3.2.1]octan-8-yl)-2-oxoethyl)pyrimidine-2,4(1H,3H)-dione] | 0.0001 to 10 µM | 0.0001 to 10 µM

Continued, values first:

IC50 [1] | IC50 [2] | SMILES
0.0001 to 10 µM | 10 to 100 µM | Oc1cc(-c2ccc3c(N4C[C@H]5CC[C@@H](C4)N5)nc(OCC4CCC4O)nc3c2F)c2ccccc2c1 (stereo partly drawn) [P-0617, 4-(4-((1R,5S)-3,8-diazabicyclo[3.2.1]octan-3-yl)-8-fluoro-2-((2-hydroxycyclobutyl)methoxy)quinazolin-7-yl)naphthalen-2-ol]
0.0001 to 10 µM | 10 to 100 µM | CN1CCC[C@H]1COc1nc(N2CC3CCCC2CN3)c2ccc(-c3cc(O)cc4ccccc34)c(F)c2n1 (stereo partly drawn) [P-0296, 4-(4-(6,8-diazabicyclo[3.2.2]nonan-6-yl)-8-fluoro-2-(((S)-1-methylpyrrolidin-2-yl)methoxy)quinazolin-7-yl)naphthalen-2-ol]
0.0001 to 10 µM | 100 to 1000 µM | Oc1cc(-c2ccc3c(N4C[C@H]5CC[C@@H](C4)N5)nc(N4CC(O)C4)nc3c2F)c2ccccc2c1 [P-0633, 1-(4-((1R,5S)-3,8-diazabicyclo[3.2.1]octan-3-yl)-8-fluoro-7-(3-hydroxynaphthalen-1-yl)quinazolin-2-yl)azetidin-3-ol]
